{"source": "paper PMC5218480", "about": "(PLoS ONE, 2017)", "tested_on": "MV-4-11 cells", "test": "Gene expression microarray analysis (Affymetrix PrimeView) and GSEA", "format": "cell-based, human", "parameters": "RFU PODN (11730768_x_at) / Fold change /veh PODN (11730768_x_at) / RFU LINC00158 (11744669_a_at) / Fold change /veh LINC00158 (11744669_a_at) / RFU DUSP10 (11751237_a_at) / Fold change /veh DUSP10 (11751237_a_at) / RFU ID3 (11757404_x_at) / Fold change /veh ID3 (11757404_x_at) / RFU PLEKHG5 (11737974_s_at) / Fold change /veh PLEKHG5 (11737974_s_at) / RFU LRRC4B (11730491_at) / Fold change /veh LRRC4B (11730491_at) / RFU GIMAP4 (11747438_a_at) / Fold change /veh GIMAP4 (11747438_a_at) / RFU KRT8 (11758183_x_at) / Fold change /veh KRT8 (11758183_x_at) / RFU CNN1 (11734310_a_at) / Fold change /veh CNN1 (11734310_a_at) / RFU VPS37D (11726825_at) / Fold change /veh VPS37D (11726825_at) / RFU C10orf10 (11716522_x_at) / Fold change /veh C10orf10 (11716522_x_at) / RFU KIR2DL2 /// KIR2DL4 /// KIR2DL5A /// KIR2DL5B /// KIR2DS1 /// KIR2DS2 /// KIR2DS3 /// KIR2DS4 /// KIR3DL3 /// KIR3DL3 /// KIR3DS1 (11738374_at) / Fold change /veh KIR2DL2 /// KIR2DL4 /// KIR2DL5A /// KIR2DL5B /// KIR2DS1 /// KIR2DS2 /// KIR2DS3 /// KIR2DS4 /// KIR3DL3 /// KIR3DL3 /// KIR3DS1 (11738374_at) / RFU C1QL1 (11718748_at) / Fold change /veh C1QL1 (11718748_at) / RFU TMPRSS4 (11747572_a_at) / Fold change /veh TMPRSS4 (11747572_a_at) / RFU HAMP (11756126_x_at) / Fold change /veh HAMP (11756126_x_at) / RFU RNFT2 (11725882_a_at) / Fold change /veh RNFT2 (11725882_a_at) / RFU NR4A2 (11747474_a_at) / Fold change /veh NR4A2 (11747474_a_at) / RFU ABCC12 (11746883_a_at) / Fold change /veh ABCC12 (11746883_a_at) / RFU TMEM136 (11760407_x_at) / Fold change /veh TMEM136 (11760407_x_at) / RFU CLDN22 /// WWC2 (11732394_at) / Fold change /veh CLDN22 /// WWC2 (11732394_at) / RFU HLA-DPB1 (11760878_x_at) / Fold change /veh HLA-DPB1 (11760878_x_at) / RFU SPINT1 (11716480_a_at) / Fold change /veh SPINT1 (11716480_a_at) / RFU GAP43 (11754022_s_at) / Fold change /veh GAP43 (11754022_s_at) / RFU A4GNT (11735810_at) / Fold change /veh A4GNT (11735810_at) / RFU PRB3 (11715151_x_at) / Fold change /veh PRB3 (11715151_x_at) / RFU TUBB4B (11761932_at) / Fold change /veh TUBB4B (11761932_at) / RFU CAPN14 (11732068_a_at) / Fold change /veh CAPN14 (11732068_a_at) / RFU TMCC2 (11721928_a_at) / Fold change /veh TMCC2 (11721928_a_at) / RFU IRGQ (11745062_a_at) / Fold change /veh IRGQ (11745062_a_at) / RFU FAM174B (11720279_a_at) / Fold change /veh FAM174B (11720279_a_at) / RFU TMPRSS4 (11748680_a_at) / Fold change /veh TMPRSS4 (11748680_a_at) / RFU FAM212B (11763350_a_at) / Fold change /veh FAM212B (11763350_a_at) / RFU PLEKHG5 (11743358_a_at) / Fold change /veh PLEKHG5 (11743358_a_at) / RFU ZSCAN30 (11745921_a_at) / Fold change /veh ZSCAN30 (11745921_a_at) / RFU CMKLR1 (11741424_a_at) / Fold change /veh CMKLR1 (11741424_a_at) / RFU LOC101060620 /// MAPK8IP1 (11723275_at) / Fold change /veh LOC101060620 /// MAPK8IP1 (11723275_at) / RFU SPTSSB (11747773_x_at) / Fold change /veh SPTSSB (11747773_x_at) / RFU PRSS12 (11739890_at) / Fold change /veh PRSS12 (11739890_at) / RFU BIN1 (11741810_x_at) / Fold change /veh BIN1 (11741810_x_at) / RFU WNT11 (11732464_a_at) / Fold change /veh WNT11 (11732464_a_at) / RFU C10orf10 (11716521_a_at) / Fold change /veh C10orf10 (11716521_a_at) / RFU C5orf56 (11738089_at) / Fold change /veh C5orf56 (11738089_at) / RFU CYB561 (11721691_x_at) / Fold change /veh CYB561 (11721691_x_at) / RFU ANKRD19P (11752326_a_at) / Fold change /veh ANKRD19P (11752326_a_at) / RFU OR2T12 /// OR2T33 /// OR2T8 (11738714_s_at) / Fold change /veh OR2T12 /// OR2T33 /// OR2T8 (11738714_s_at) / RFU VCAN (11748164_a_at) / Fold change /veh VCAN (11748164_a_at) / RFU JSRP1 (11732532_at) / Fold change /veh JSRP1 (11732532_at) / RFU KRTAP10-11 (11738290_x_at) / Fold change /veh KRTAP10-11 (11738290_x_at) / RFU MYO3A (11730013_a_at) / Fold change /veh MYO3A (11730013_a_at) / RFU EBF3 (11725865_a_at) / Fold change /veh EBF3 (11725865_a_at) / RFU CAMK2N1 (11719241_x_at) / Fold change /veh CAMK2N1 (11719241_x_at) / RFU C5orf56 (11738088_a_at) / Fold change /veh C5orf56 (11738088_a_at) / RFU OLFML3 (11715873_a_at) / Fold change /veh OLFML3 (11715873_a_at) / RFU LOC100653217 /// NTM (11731650_a_at) / Fold change /veh LOC100653217 /// NTM (11731650_a_at) / RFU MAPK11 (11762145_a_at) / Fold change /veh MAPK11 (11762145_a_at) / RFU FIZ1 (11724087_x_at) / Fold change /veh FIZ1 (11724087_x_at) / RFU OASL (11726364_x_at) / Fold change /veh OASL (11726364_x_at) / RFU SOX15 (11748057_x_at) / Fold change /veh SOX15 (11748057_x_at) / RFU CD79A (11719716_a_at) / Fold change /veh CD79A (11719716_a_at) / RFU HIST1H1D (11736915_at) / Fold change /veh HIST1H1D (11736915_at) / RFU CASKIN2 (11723855_a_at) / Fold change /veh CASKIN2 (11723855_a_at) / RFU LOC730098 (11760151_x_at) / Fold change /veh LOC730098 (11760151_x_at) / RFU OR4N2 (11742367_at) / Fold change /veh OR4N2 (11742367_at) / RFU PRRT2 (11749266_a_at) / Fold change /veh PRRT2 (11749266_a_at) / RFU SNX32 (11753110_a_at) / Fold change /veh SNX32 (11753110_a_at) / RFU CDHR5 (11726645_a_at) / Fold change /veh CDHR5 (11726645_a_at) / RFU RCAN1 (11760418_a_at) / Fold change /veh RCAN1 (11760418_a_at) / RFU FAM167A (11723789_a_at) / Fold change /veh FAM167A (11723789_a_at) / RFU FAM26E (11764081_at) / Fold change /veh FAM26E (11764081_at) / RFU ISYNA1 (11749810_s_at) / Fold change /veh ISYNA1 (11749810_s_at) / RFU ACY1 (11761880_at) / Fold change /veh ACY1 (11761880_at) / RFU 11764098_at / Fold change /veh 11764098_at / RFU SAMD14 (11745864_x_at) / Fold change /veh SAMD14 (11745864_x_at) / RFU NPB (11741838_a_at) / Fold change /veh NPB (11741838_a_at) / RFU TMPRSS6 (11731388_a_at) / Fold change /veh TMPRSS6 (11731388_a_at) / RFU KRTAP10-2 (11738614_at) / Fold change /veh KRTAP10-2 (11738614_at) / RFU ARHGAP8 /// PRR5-ARHGAP8 (11727945_x_at) / Fold change /veh ARHGAP8 /// PRR5-ARHGAP8 (11727945_x_at) / RFU KRTAP5-7 /// NADSYN1 (11734609_at) / Fold change /veh KRTAP5-7 /// NADSYN1 (11734609_at) / RFU RASL12 (11751679_a_at) / Fold change /veh RASL12 (11751679_a_at) / RFU CDKN2B (11736163_a_at) / Fold change /veh CDKN2B (11736163_a_at) / RFU PRF1 (11729649_at) / Fold change /veh PRF1 (11729649_at) / RFU, ZNF638 /// ZNF638-IT1 / Fold change vs veh, ZNF638 /// ZNF638-IT1 / RFU, PANK3 / Fold change vs veh, PANK3 / RFU, SH3YL1 / Fold change vs veh, SH3YL1 / RFU, ZEB2 / Fold change vs veh, ZEB2 / RFU, NRIP1 / Fold change vs veh, NRIP1 / RFU, PTTG1IP / Fold change vs veh, PTTG1IP / RFU, CAPN2 / Fold change vs veh, CAPN2 / RFU, MED14 / Fold change vs veh, MED14 / RFU, SNORA58 / Fold change vs veh, SNORA58 / RFU, C1orf63 / Fold change vs veh, C1orf63 / RFU, LRRFIP1 / Fold change vs veh, LRRFIP1 / RFU, NDUFAF7 / Fold change vs veh, NDUFAF7 / RFU, SLC12A2 / Fold change vs veh, SLC12A2 / RFU, IBTK / Fold change vs veh, IBTK / RFU, ESF1 / Fold change vs veh, ESF1 / Fold change vs veh, TMEM50B / RFU, TAOK1 / Fold change vs veh, TAOK1 / RFU, ACBD3 / Fold change vs veh, ACBD3 / RFU, TMA16 / Fold change vs veh, TMA16 / RFU, RWDD3 / Fold change vs veh, RWDD3 / RFU, BCAT1 / Fold change vs veh, BCAT1 / RFU, EDEM3 / Fold change vs veh, EDEM3 / RFU, TMEM33 / Fold change vs veh, TMEM33 / RFU, WDR75 / Fold change vs veh, WDR75 / RFU, AHCTF1 / Fold change vs veh, AHCTF1 / RFU, TFRC / Fold change vs veh, TFRC / RFU, ZDHHC17 / Fold change vs veh, ZDHHC17 / RFU, NOM1 / Fold change vs veh, NOM1 / RFU, ARL8B / Fold change vs veh, ARL8B / RFU, ZBTB11 / Fold change vs veh, ZBTB11 / RFU, TAMM41 / Fold change vs veh, TAMM41 / RFU, KIAA1704 /// LOC100996395 / Fold change vs veh, KIAA1704 /// LOC100996395 / RFU, ING1 / Fold change vs veh, ING1 / RFU, TRMT61B / Fold change vs veh, TRMT61B / RFU, FUBP3 / Fold change vs veh, FUBP3 / RFU, TP53 / Fold change vs veh, TP53 / RFU, TNKS2 / Fold change vs veh, TNKS2 / RFU, ZFP14 / Fold change vs veh, ZFP14 / RFU, ACTR2 / Fold change vs veh, ACTR2 / RFU, PPP3R1 / Fold change vs veh, PPP3R1 / RFU, PIK3R1 / Fold change vs veh, PIK3R1 / RFU, HNRNPA1 / Fold change vs veh, HNRNPA1 / RFU, RNF170 / Fold change vs veh, RNF170 / RFU, ZNF28 / Fold change vs veh, ZNF28 / RFU, RNGTT / Fold change vs veh, RNGTT / RFU, OGT / Fold change vs veh, OGT / RFU, BRD1 / Fold change vs veh, BRD1 / RFU, MARS / Fold change vs veh, MARS / RFU, ZNF655 / Fold change vs veh, ZNF655 / RFU, FAHD1 / Fold change vs veh, FAHD1 / RFU, BDP1 / Fold change vs veh, BDP1 / RFU, LRRCC1 / Fold change vs veh, LRRCC1 / RFU, ARID1A / Fold change vs veh, ARID1A / RFU, ZNF146 / Fold change vs veh, ZNF146 / RFU, ZNF330 / Fold change vs veh, ZNF330 / RFU, GPN3 / Fold change vs veh, GPN3 / RFU, C9orf123 / Fold change vs veh, C9orf123 / RFU, N4BP2L2 / Fold change vs veh, N4BP2L2 / RFU, ARFIP1 / Fold change vs veh, ARFIP1 / RFU, FAM179B / Fold change vs veh, FAM179B / RFU, BCL10 / Fold change vs veh, BCL10 / RFU, UHRF1BP1L / Fold change vs veh, UHRF1BP1L / RFU, BET1 / Fold change vs veh, BET1 / RFU, CNOT2 / Fold change vs veh, CNOT2 / RFU, ZNF268 / Fold change vs veh, ZNF268 / Fold change vs veh, ZNF507 / RFU, DGCR2 / Fold change vs veh, DGCR2 / RFU, WDSUB1 / Fold change vs veh, WDSUB1 / Fold change vs veh, HSP90B1 /// MIR3652 / RFU, ADSS / Fold change vs veh, ADSS / RFU, GK / Fold change vs veh, GK / RFU, ZNF148 / Fold change vs veh, ZNF148 / RFU, TAF9 / Fold change vs veh, TAF9 / RFU, SLC1A5 / Fold change vs veh, SLC1A5 / RFU, SLMO2 / Fold change vs veh, SLMO2 / RFU, ABCC4 / Fold change vs veh, ABCC4 / RFU, LOC101060439 /// RAP1B / Fold change vs veh, LOC101060439 /// RAP1B / RFU, RFX7 / Fold change vs veh, RFX7 / RFU, GTPBP10 / Fold change vs veh, GTPBP10 / RFU, CNEP1R1 / Fold change vs veh, CNEP1R1 / RFU, BIVM-ERCC5 /// ERCC5 / Fold change vs veh, BIVM-ERCC5 /// ERCC5 / RFU, ILF3 / Fold change vs veh, ILF3 / RFU 11762660_at / Fold change /veh 11762660_at / RFU VCAN (11757783_s_at) / Fold change /veh VCAN (11757783_s_at) / RFU DDX43 (11728927_at) / Fold change /veh DDX43 (11728927_at) / RFU KRT8 (11758188_x_at) / Fold change /veh KRT8 (11758188_x_at) / RFU NKD1 (11759106_at) / Fold change /veh NKD1 (11759106_at) / RFU SRD5A1 (11742802_a_at) / Fold change /veh SRD5A1 (11742802_a_at) / RFU TPSAB1 /// TPSB2 (11721975_s_at) / Fold change /veh TPSAB1 /// TPSB2 (11721975_s_at) / RFU GSTM3 (11746129_a_at) / Fold change /veh GSTM3 (11746129_a_at) / RFU IL23R (11737362_x_at) / Fold change /veh IL23R (11737362_x_at) / RFU TMEM51 (11727254_a_at) / Fold change /veh TMEM51 (11727254_a_at) / RFU PIWIL2 (11732686_x_at) / Fold change /veh PIWIL2 (11732686_x_at) / RFU ORM1 (11744905_x_at) / Fold change /veh ORM1 (11744905_x_at) / RFU CCDC152 (11743942_at) / Fold change /veh CCDC152 (11743942_at) / RFU ECM1 (11717891_a_at) / Fold change /veh ECM1 (11717891_a_at) / RFU IL23R (11748794_a_at) / Fold change /veh IL23R (11748794_a_at) / RFU TNFAIP8L3 (11732012_x_at) / Fold change /veh TNFAIP8L3 (11732012_x_at) / RFU MBOAT4 (11741988_at) / Fold change /veh MBOAT4 (11741988_at) / RFU 11764193_at / Fold change /veh 11764193_at / RFU TMEM53 (11763286_at) / Fold change /veh TMEM53 (11763286_at) / RFU MAGEB2 (11727129_at) / Fold change /veh MAGEB2 (11727129_at) / RFU TMEM200A (11744735_a_at) / Fold change /veh TMEM200A (11744735_a_at) / RFU CCDC152 (11751479_a_at) / Fold change /veh CCDC152 (11751479_a_at) / RFU FAM211A (11726209_a_at) / Fold change /veh FAM211A (11726209_a_at) / RFU RGS16 (11746705_a_at) / Fold change /veh RGS16 (11746705_a_at) / RFU VCAN (11755009_s_at) / Fold change /veh VCAN (11755009_s_at) / RFU RHOB (11743442_s_at) / Fold change /veh RHOB (11743442_s_at) / RFU RGS16 (11720943_a_at) / Fold change /veh RGS16 (11720943_a_at) / RFU RGS16 (11720944_at) / Fold change /veh RGS16 (11720944_at) / RFU, VPS4B / Fold change vs veh, VPS4B / RFU, CREB1 / Fold change vs veh, CREB1 / RFU, DNAJC13 / Fold change vs veh, DNAJC13 / RFU, GNAQ / Fold change vs veh, GNAQ / RFU, CDK5R1 / Fold change vs veh, CDK5R1 / RFU, ZRANB3 / Fold change vs veh, ZRANB3 / RFU, CUL4A / Fold change vs veh, CUL4A / RFU, CCNY / Fold change vs veh, CCNY / RFU, UFL1 / Fold change vs veh, UFL1 / RFU, COG3 / Fold change vs veh, COG3 / RFU, DIAPH2 / Fold change vs veh, DIAPH2 / RFU, SKA2 / Fold change vs veh, SKA2 / RFU, AFF3 / Fold change vs veh, AFF3 / RFU, LMF1 / Fold change vs veh, LMF1 / RFU, IPO11 / Fold change vs veh, IPO11 / RFU, DFFB / Fold change vs veh, DFFB / RFU, FOXP1 / Fold change vs veh, FOXP1 / RFU, CARD8 / Fold change vs veh, CARD8 / RFU, STRN3 / Fold change vs veh, STRN3 / RFU, ADK / Fold change vs veh, ADK / RFU, RASSF2 / Fold change vs veh, RASSF2 / RFU, WIPF1 / Fold change vs veh, WIPF1 / RFU, LARP1B / Fold change vs veh, LARP1B / RFU, RASA1 / Fold change vs veh, RASA1 / RFU, RB1 / Fold change vs veh, RB1 / RFU, PPFIA1 / Fold change vs veh, PPFIA1 / RFU, MAT2A / Fold change vs veh, MAT2A / RFU, CCT5 / Fold change vs veh, CCT5 / RFU, WDR92 / Fold change vs veh, WDR92 / RFU, CUX1 / Fold change vs veh, CUX1 / RFU, TTC7A / Fold change vs veh, TTC7A / RFU, TMEM135 / Fold change vs veh, TMEM135 / RFU, DEPTOR / Fold change vs veh, DEPTOR / RFU, CPM / Fold change vs veh, CPM / RFU, DNAJB6 / Fold change vs veh, DNAJB6 / RFU, CACNA2D3 / Fold change vs veh, CACNA2D3 / RFU, DTX4 / Fold change vs veh, DTX4 / RFU, TFCP2 / Fold change vs veh, TFCP2 / RFU, GMCL1 /// GMCL1P1 / Fold change vs veh, GMCL1 /// GMCL1P1 / RFU, AEBP2 / Fold change vs veh, AEBP2 / RFU, SNHG1 /// SNORD22 /// SNORD25 /// SNORD26 /// SNORD27 /// SNORD28 /// SNORD29 /// SNORD31 / Fold change vs veh, SNHG1 /// SNORD22 /// SNORD25 /// SNORD26 /// SNORD27 /// SNORD28 /// SNORD29 /// SNORD31 / Fold change (Aza/veh), C12orf56 (ProbeSet 11735607_a_at) / Fold change (ACY-1035/veh), C12orf56 (ProbeSet 11735607_a_at) / Fold change (Aza/veh), FGFR1OP (ProbeSet 11751329_s_at) / Fold change (ACY-1035/veh), FGFR1OP (ProbeSet 11751329_s_at) / Fold change (Aza/veh), VPS36 (ProbeSet 11739960_a_at) / Fold change (ACY-1035/veh), VPS36 (ProbeSet 11739960_a_at) / RFU SYPL1 (11715823_x_at) / Fold change /veh SYPL1 (11715823_x_at) / RFU IGFBP7 (11715501_s_at) / Fold change /veh IGFBP7 (11715501_s_at) / RFU REEP3 (11722064_at) / Fold change /veh REEP3 (11722064_at) / RFU IGLL1 (11728026_x_at) / Fold change /veh IGLL1 (11728026_x_at): dose or concentration left out as unconfirmed", "conditions": "ProbeSet 11758170_s_at; LIST D"}
{"smiles": "Nc1ncn([C@@H]2O[C@H](CO)[C@@H](O)[C@H]2O)c(=O)n1", "note": "[azacitidine]", "values": [{"measurement": "Fold change vs veh, DIAPH2", "result": 0.72}]}
